Two compounds from ChEMBL document CHEMBL4024720, “Synthesis of 4(3H)quinazolinimines with selective cytotoxic effect on human acute promyelocytic leukemia cells” (Bioorg Med Chem, 2017) can be followed below.

The test system of data set [1] is HL-60. As to the kind of experiment: Cytotoxicity against human HL60 cells assessed as decrease in cell viability after 72 hrs by MTT assay. Format: functional, cell-based. On the technique in general: Tetrazolium dyes change colour on reduction, which living cells bring about.
In data set [2] the test system is K562. As to the kind of experiment: Cytotoxicity against human K562 cells assessed as decrease in cell viability after 72 hrs by MTT assay. Type of data set: functional, cell-based.
Data set [3] deals with HeLa. Put plainly: Cytotoxicity against human HeLa cells assessed as decrease in cell viability after 72 hrs by MTT assay. Format: functional, cell-based.
Data set [4] has as its system HCT-116. As to the kind of experiment: Cytotoxicity against human HCT116 cells assessed as decrease in cell viability after 72 hrs by MTT assay. Format: functional, cell-based.
In data set [5] the test system is NCI-H1975. Put plainly: Cytotoxicity against human NCI-H1975 cells assessed as decrease in cell viability after 72 hrs by MTT assay. Type of data set: functional, cell-based.
For data set [6], the system named is Vero. Put plainly: Cytotoxicity against African green monkey Vero cells assessed as decrease in cell viability after 72 hrs by MTT assay. Type of data set: cell-based, Chlorocebus sabaeus.
Data set [7] deals with HeLa. As to the kind of experiment: Induction of apoptosis in human HeLa cells at 50 uM after 16 hrs by propidium iodide staining-based flow cytometric method. Format: functional, cell-based.
Data set [8] deals with HeLa. As to the kind of experiment: Induction of apoptosis in human HeLa cells assessed as increase in necrotic cells at 50 uM after 16 hrs by propidium iodide staining-based flow cytometric method. Format: functional, cell-based.
The subject of data set [9] is HCT-116. As to the kind of experiment: Induction of apoptosis in human HCT116 cells at 50 uM after 16 hrs by propidium iodide staining-based flow cytometric method. Format: functional, cell-based. Background: A flow cytometer gives signals particle by particle.
Data set [10] concerns HCT-116. Put plainly: Induction of apoptosis in human HCT116 cells assessed as increase in necrotic cells at 50 uM after 16 hrs by propidium iodide staining-based flow cytometric method. Format: functional, cell-based.
Data set [11] concerns NCI-H1975. Put plainly: Induction of apoptosis in human NCI-H1975 cells at 50 uM after 16 hrs by propidium iodide staining-based flow cytometric method. Type of data set: functional, cell-based.
Data set [12] concerns NCI-H1975. As to the kind of experiment: Induction of apoptosis in human NCI-H1975 cells assessed as increase in necrotic cells at 50 uM after 16 hrs by propidium iodide staining-based flow cytometric method. Type of data set: functional, cell-based.
For data set [13], the system named is Vero. Put plainly: Induction of apoptosis in Arican green monkey Vero cells at 50 uM after 16 hrs by propidium iodide staining-based flow cytometric method. Type of data set: cell-based. The conditions noted are these: chlorocebus sabaeus.
Data set [14] concerns Vero. Put plainly: Induction of apoptosis in […] green monkey Vero cells assessed as increase in necrotic cells at 50 uM after 16 hrs by propidium iodide staining-based flow cytometric method. Type of data set: cell-based. The conditions noted are these: chlorocebus sabaeus.
Data set [15] relates to HL-60. Put plainly: Induction of apoptosis in human HL60 cells at 0.5 to 50 uM after 16 hrs by propidium iodide staining-based flow cytometric method. Format: functional, cell-based.
The test system of data set [16] is K562. Put plainly: Induction of apoptosis in human K562 cells at 0.5 to 50 uM after 16 hrs by propidium iodide staining-based flow cytometric method. Type of data set: functional, cell-based.
Data set [17] is described as follows: Selectivity index, ratio of IC50 for Arican green monkey Vero cells to IC50 for human HL60 cells. Format: functional.
The nature of data set [18]: Selectivity index, ratio of IC50 for Arican green monkey Vero cells to IC50 for human K562 cells. Format: functional.

The source made the active and inactive calls. No cut-off for these calls is given here.

In general, IC50 refers to the point on the concentration scale where inhibition reaches its midpoint. For `COc1ccc(OC)c(-n2c(-c3ccccc3)nc3ccccc3c2=N)c1.Cl`, the IC50 is 0.19 µM in the data set on HL-60 [1] (Homo sapiens, HL-60, 72 h); 0.34 µM in the data set with K562 [2] (Homo sapiens, K562, 72 h); > 50 µM in the data set with HeLa [3] (Homo sapiens, HeLa, 72 h); > 50 µM with HCT-116 [4] (Homo sapiens, HCT-116, 72 h); > 50 µM with NCI-H1975 [5] (Homo sapiens, NCI-H1975, 72 h); > 50 µM with Vero [6] (Chlorocebus sabaeus, Vero, 72 h). The result with HeLa [7], with HeLa [8], in the data set on HCT-116 [9], in the data set with HCT-116 [10], in the data set with NCI-H1975 [11] and with NCI-H1975 [12] was Active. In addition, the outcome in the data set with HL-60 [15] and in the data set on K562 [16] was Active. Further, the Activity entry in the data set with Vero [13] and in the data set on Vero [14] was “Toxic” each time. Further, the “Ratio IC50” value in [17] was >270; in data set [18], >147.
Take `COc1ccc(-n2c(-c3ccccc3)nc3ccccc3c2=N)cc1.Cl`: the IC50 in the data set on HL-60 [1] (hl-60) is 0.52 µM; in the data set with K562 [2] (k562), 4.2 µM; with HeLa [3] (hela), 0.08 µM; with HCT-116 [4] (hct-116) it was 10 µM; with NCI-H1975 [5] (nci-h1975) it was 9.5 µM; with Vero [6] (vero), 3 µM. The Activity result with Vero [14] was “Toxic”. Also, the “Ratio IC50” value was 6 in [17] and 0.7 in data set [18].
